Test results reported in the supplement of paper PMC11821682.

Legend:
[1] = test system: Danio rerio embryo; assay: BMC10 any morphological effect or mortality at 120 hpf; higher = less toxic
Method: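 ZBEscreen: dechorionated Tropical 5D zebrafish embryos were exposed from 4 hpf in 96-well plates (1% DMSO, 28 °C). All compounds were first tested at 100 µM; hits were retested at 0.005-100 µM. Morphology and mortality were scored at 120 hpf and fitted as BMC10 (3-parameter log-logistic, extra risk). The embryonic photomotor response at 24 hpf and the larval photomotor response at 120 hpf are given as lowest effect levels (K-S test, p<0.01). NA = not significant up to 100 µM; NT = not tested.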

[2] = test system: HL-60; assay: Cell Health Index (toxicity pseudo-probability over dose series) (index 0-1); higher = more cytotoxic / cell stress;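 also: HL-60 cells exposed 4 h at 37 °C to ten threefold dilutions spanning 5 nM to 100 µM, multiparametric flow cytometry features scored by machine-learning classification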

Row | Structure (SMILES) | BMC10 any morphological effect or mortality [1] | Cell Health Index [2]
1 | COC(=O)N[C@H](C(=O)NNC[C@H](O)[C@H](Cc1ccccc1)NC(=O)[C@@H](NC(=O)OC)C(C)(C)C)C(C)(C)C [Des(benzylpyridyl) Atazanavir] | > 100 µM | 0.207
2 | C#Cc1cn([C@H]2C[C@H](O)[C@@H](CO)O2)c(=O)nc1N [5'-Ethynyl-2'-deoxycytidine] | > 100 µM | 0.13
3 | Oc1cc(O)c2c(c1)O[C@@H](c1ccc(O)c(O)c1)[C@H](O)C2 [(-)-Catechin] | > 100 µM | 0.201
4 | COc1ncnc(NS(=O)(=O)c2ccc(N)cc2)c1OC [Sulfadoxin] | > 100 µM | 0.201
5 | O=C([O-])P(=O)([O-])[O-].[Na+].[Na+].[Na+] [Foscarnet] | > 100 µM | 0.13
6 | O=c1c(O)cc([C@H]2Oc3cc(O)cc(O)c3C[C@H]2O)cc2c([C@H]3Oc4cc(O)cc(O)c4C[C@H]3O)cc(O)c(O)c12 [Theaflavin] | > 100 µM | 0.752
7 | CC(C)(C)OC(=O)N[C@H]1CCCCC/C=C\[C@@H]2C[C@@]2(C(=O)NS(=O)(=O)C2CC2)NC(=O)[C@@H]2C[C@@H](OC(=O)N3Cc4cccc(F)c4C3)CN2C1=O [Danoprevir] | > 100 µM | 0.26
8 | O=c1[nH]c(=O)n([C@H]2C[C@H](O)[C@@H](CO)O2)cc1C(F)(F)F [Trifluorothymidine] | > 100 µM | 0.138
9 | CCCN(CCC)S(=O)(=O)c1ccc(C(=O)O)cc1 [Probenecid] | > 100 µM | 0.196
10 | CCO.C[C@H]1c2cccc(O)c2C(=O)C2=C(O)[C@]3(O)C(=O)C(C(N)=O)=C(O)[C@@H](N(C)C)C3[C@@H](O)C21.C[C@H]1c2cccc(O)c2C(=O)C2=C(O)[C@]3(O)C(=O)C(C(N)=O)=C(O)[C@@H](N(C)C)C3[C@@H](O)C21.Cl.Cl.O (some centres undefined) [Doxycycline] | > 100 µM | 0.591
11 | O=c1c2cc(O)c(O)cc2oc2cc(O)c([C@@H]3O[C@H](CO)[C@@H](O)[C@H](O)[C@H]3O)c(O)c12 [Mangiferin] | > 100 µM | 0.26
12 | Nc1nc2c(ncn2COCCO)c(=O)[nH]1 [Acyclovir] | > 100 µM | 0.214
13 | Cc1nnc(C(C)C)n1[C@@H]1C[C@H]2CC[C@@H](C1)N2CC[C@H](NC(=O)C1CCC(F)(F)CC1)c1ccccc1 [Maraviroc] | > 100 µM | 0.155
14 | O=C(/C=C/c1ccc(O)c(O)c1)O[C@@H]1C[C@](O)(C(=O)O)C[C@@H](OC(=O)/C=C/c2ccc(O)c(O)c2)[C@H]1O [3,5-Dicaffeoylquinic acid] | > 100 µM | 0.614
15 | Cl.NC12C[C@H]3C[C@@H](C1)C[C@@H](C2)C3 [Amantadine] | > 100 µM | 0.195
16 | CC(=O)N[C@@H](CS)C(=O)O [N-acetyl-L-Cysteine] | > 100 µM | 0.143
17 | O=C(/C=C/c1ccc(O)c(O)c1)O[C@@H]1C[C@](OC(=O)/C=C/c2ccc(O)c(O)c2)(C(=O)O)C[C@@H](O)[C@H]1O [1,5-Dicaffeoylquinic acid] | > 100 µM | 0.569
